Read-outs that look alike come from different tables or passages of the source.
What was measured:
Type in all cases: cell-based
[1] = test system: NCI-H358 cells; test: Cell proliferation activity of NCI-H358 by CellTiter-Glo reagent; conditions: for IC50: Homo sapiens, read-out: IC50 value of cell proliferation inhibitory activity of NCI-H358
Experimental: NCI-H358 cells in exponential growth phase were digested with trypsin-EDTA, plated in a 96-well plate with 2000-3000 cells per well, and incubated overnight at 37° C. with 5% CO2. […] After the incubation, CellTiter-Glo test reagent with an equal volume was added into each well and the obtained 96-well plate was incubated after shaking. The chemiluminescence values were determined by microplate reader, and the IC50 values of the test compounds inhibiting the proliferation of NCI-H358 cells were fitted and calculated by GraphPad Prism software.
The test method of inhibitory activity was the same as that in Test 3 in “Biological Tests” part.

[2] = test system: NCI-H358; test: Cell proliferation inhibitory activity on NCI-H358, 3D model test (agarose colony formation); conditions: for anti-cell proliferation activity against KRAS G12C mutant type cells NCI-H358 (in words): 3D model test; for IC50: Homo sapiens, NCI-H358, 3D agarose colony formation, NBT staining
Experimental: 100 μl of agarose gel with a high concentration was spread in a 96-well plate as the bottom agarose gel layer. Agarose with a low concentration and growth medium containing cells were mixed and then spread on the bottom agar layer, cooled and solidified, then incubated overnight at 37° C. Mother solutions were prepared from the test compounds by using DMSO, and then subjected to gradient elution with RPMI 1640 growth medium. The solutions of test compounds with different concentrations after gradient elution were added to the 96-well plate comprising an upper layer of agar gel-cells. Solvent control well was set up and the plate was incubated in a CO2 incubator. The drug-containing medium was changed during the incubation period and the cell growth situation was observed. After the incubation, the cells were stained with NBT and the number of cell colony formation was counted, and the IC50 values of the compounds inhibiting cell proliferation were derived.

[3] = test system: MIA PaCa-2 cells; test: Cell proliferation activity of MIA PaCa-2 by CellTiter-Glo reagent; conditions: 72 h, CellTiter-Glo; for IC50: Homo sapiens, MIA PaCa-2, read-out: IC50 value of cell proliferation inhibitory activity of the compound on MIA PaCa-2
Experimental: MIA PaCa-2 cells in exponential growth phase were digested with trypsin-EDTA, plated in a 96-well plate with 2000-3000 cells per well, and incubated overnight at 37° C. with 5% CO2. Mother solutions were prepared from the test compounds by using DMSO, subjected to gradient elution with DMEM growth medium, and then added into the 96-well plate and incubated in an incubator for 72 h at 37° C. with 5% CO2. After the incubation, CellTiter-Glo test reagent with an equal volume was added into each well and the obtained 96-well plate was incubated after shaking. The chemiluminescence values were determined by microplate reader, and the IC50 values of the test compounds inhibiting the proliferation of MIA PaCa-2 cells were fitted and calculated by GraphPad Prism software.
The test method of inhibitory activity was the same as that in Test 2 in “Biological Tests” part.

[4] = NCI-H358, 72 h, 72 h, CellTiter-Glo, test 3
[5] = NCI-H358, test 4, method of test 3

| SMILES | anti-cell proliferation activity against KRAS G12C mutant type cells NCI-H358 (in words) ([1]; 72 h, CellTiter-Glo) | IC50 [2] [nM] | IC50 [3] [nM] | IC50 [1, 5] [nM] | also measured |
| --- | --- | --- | --- | --- | --- |
| [2H]C([2H])=Cc1ccccc1-c1nc2c(cc1Cl)c(N1[C@@H](C)CN(C(=O)C=C)C[C@@H]1C)nc(=O)n2-c1c(CC)ccnc1C(C)C [Compound 2-3] | significant anti-cell proliferation activity | – | – | – | – |
| [2H][C@]1(C)CN(C(=O)C=C)CCN1c1nc(=O)n(-c2c(C)ccnc2C(C)C)c2nc(-c3c(F)cccc3C=C)c(Cl)cc12 [Compound 3-49] | significant anti-cell proliferation activity | – | – | – | IC50 [1, 4]: < 50 nM |
| [2H]C([2H])=Cc1cccc(F)c1-c1nc2c(cc1F)c(N1CCN(C(=O)C=C)C[C@@H]1C)nc(=O)n2-c1c(C)ccnc1C(C)C [Compound 3-19] | – | < 50 | < 50 | – | anti-cell proliferation activity against KRAS G12C mutant type cells NCI-H358 (in words) [2]: significant anti-cell proliferation activity; anti-cell proliferation activity against KRAS G12C mutant type cells MIA PaCa-2 (in words) [3]: significant anti-cell proliferation activity |
| [2H]/C=C(\[2H])C(=O)N1CCN(c2nc(=O)n(-c3c(CC)ccnc3C(C)C)c3nc(-c4c(F)cccc4C=C)c(Cl)cc23)[C@@H](C)C1 [Compound 2-8] | significant anti-cell proliferation activity | – | – | – | IC50 [1, 4]: < 50 nM |
| [2H]C([2H])=Cc1cccc(F)c1-c1nc2c(cc1F)c(N1[C@@H](C)CN(C(=O)C(=C)F)C[C@@H]1C)nc(=O)n2-c1c(C)ccnc1C(C)C [Compound 3-25] | – | < 50 | – | – | – |
| C=CC(=[18O])N1CCN(c2nc(=O)n(-c3c(CC)ccnc3C(C)C)c3nc(-c4ccccc4C=C)c(Cl)cc23)[C@@H](C)C1 [Compound 3-4MIS] | significant anti-cell proliferation activity | – | – | < 50 | – |
| C=CC(=O)N1CCN(c2nc(=O)n(-c3c(C(C)C)ccnc3C(C)C)c3nc(-c4ccccc4C=C)c(Cl)cc23)[C@@H](C)C1 [Compound 5-24] | – | < 50 | < 50 | – | – |
| C=CC(=O)N1CCN(c2nc(=O)n(-c3c(C)ccnc3C(C)C)c3nc(-c4c(F)cccc4C=C)c(F)cc23)[C@@H](C)C1 [Compound 3-5] | – | < 50 | < 50 | – | anti-cell proliferation activity against KRAS G12C mutant type cells NCI-H358 (in words) [2]: significant anti-cell proliferation activity; anti-cell proliferation activity against KRAS G12C mutant type cells MIA PaCa-2 (in words) [3]: significant anti-cell proliferation activity |
| C=CC(=[18O])N1C[C@H](C)N(c2nc(=O)n(-c3c(C)ccnc3C(C)C)c3nc(-c4ccccc4C=C)c(Cl)cc23)[C@@H](C)C1 [Compound 3-3MIS] | significant anti-cell proliferation activity | – | – | < 50 | – |
| [2H]C([2H])=Cc1cccc(F)c1-c1nc2c(cc1Cl)c(N1CCN(C(=[18O])C=C)C[C@@H]1C)nc(=O)n2-c1c(C)ccnc1C(C)C [Compound 3-9MIS] | significant anti-cell proliferation activity | – | – | < 50 | – |
| [2H]C([2H])([2H])c1ccnc(C(C)C)c1-n1c(=O)nc(N2CCN(C(=O)C=C)C[C@@H]2C)c2cc(F)c(-c3ccccc3C=C)nc21 [Compound 4-23] | – | < 50 | < 50 | – | – |
| [2H]C([2H])=Cc1cccc(F)c1-c1nc2c(cc1F)c(N1CCN(C(=O)C=C)C[C@@H]1C)nc(=O)n2-c1c(C(C)C)ccnc1C(C)C [Compound 5-3] | – | < 50 | < 50 | – | – |
| [2H]C([2H])=Cc1cccc(F)c1-c1nc2c(cc1F)c(N1[C@@H](C)CN(C(=O)C(=C)F)C[C@@H]1C)nc(=O)n2-c1c(C(C)C)ccnc1C(C)C [Compound 5-9] | – | < 50 | – | – | – |
| [2H]C([2H])=Cc1cccc(F)c1-c1nc2c(cc1Cl)c(N1CCN(C(=[18O])C=C)C[C@@H]1C)nc(=O)n2-c1c(CC)ccnc1C(C)C [Compound 3-12MIS] | significant anti-cell proliferation activity | – | – | < 50 | – |
| C=CC(=[18O])N1CCN(c2nc(=O)n(-c3c(CC)ccnc3C(C)C)c3nc(-c4c(F)cccc4C=C)c(Cl)cc23)[C@@H](C)C1 [Compound 3-8MIS] | significant anti-cell proliferation activity | – | – | < 50 | – |
| [2H]C([2H])=Cc1ccccc1-c1nc2c(cc1Cl)c(N1CCN(C(=O)C=C)C[C@@H]1C)nc(=O)n2-c1c(C)ccnc1C(C)C [Compound 3-16M] | significant anti-cell proliferation activity | – | – | – | IC50 [1, 4]: < 50 nM; cell proliferation inhibitory activity on NCI-H358 compared with the corresponding compound with axial chiral S configuration (in words) ([1]; NCI-H358): significantly better |

From US20230143751A1, “Aromatic Compound And Use Thereof In Preparing Antineoplastic Drugs” (Shanghai Zheye Biotechnology Co. Ltd., priority 2020, published 2023)
